Measured values as given in ChEMBL document CHEMBL1201862, “PubChem BioAssay data set” (2004).
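Test compounds were applied to cells in 96-well plates for 48 hours at 5 doses. GI50 is the concentration that inhibits growth by half.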 The source made the active and inactive calls. Cut-off read from the data, not from the text of the source: active = GI50 up to about 1.1 µM and inactive = higher.

Key:
Assay in all cases: inhibition of tumour cell growth, NCI panel, 48 h
A498 = tested on: A498
A549 = tested on: A549
ACHN = tested on: ACHN
COLO 205 = tested on: COLO 205
HCT-116 = tested on: HCT-116
HOP-62 = tested on: HOP-62
HT-29 = tested on: HT-29
IGROV-1 = tested on: IGROV-1
MOLT-4 = tested on: MOLT-4
OVCAR-3 = tested on: OVCAR-3
OVCAR-4 = tested on: OVCAR-4
SK-MEL-28 = tested on: SK-MEL-28
SK-MEL-2 = tested on: SK-MEL-2
SK-OV-3 = tested on: SK-OV-3
SNB-75 = tested on: SNB-75
U-251 = tested on: U-251
UACC-257 = tested on: UACC-257
UO-31 = tested on: UO-31
PC-3 = tested on: PC-3
DU-145 = tested on: DU-145

In the case of `[C-]#[N+]C(C)(C)C[C@H]1CC(C)C2CCC(C)C3([N+]#[C-])CCC(=C)C1[C@H]23` (some centres undefined), the GI50 (A498) is reported as 7.96 µM (inactive), the GI50 (A549) is reported as 1.58 µM (inactive) and the GI50 (ACHN) is reported as 0.169 µM (active). The GI50 (COLO 205) was 0.166 µM (active), the GI50 (HCT-116) was 0.184 µM (active) and the GI50 (HOP-62) was 2.55 µM (inactive). The GI50 (HT-29) was 0.413 µM (active), the GI50 (IGROV-1) was 1.34 µM (inactive) and the GI50 (MOLT-4) was 0.316 µM (active). For the same compound, the GI50 (OVCAR-3) was 2.36 µM (inactive), the GI50 (OVCAR-4) was 0.234 µM (active) and the GI50 (SK-MEL-28) was 11.3 µM (inactive). For the same compound, the GI50 (SK-MEL-2) was 0.753 µM (active), the GI50 (SK-OV-3) was 3.69 µM (inactive) and the GI50 (SNB-75) was 8.32 µM (inactive). The GI50 (U-251) was 1.51 µM (inactive), the GI50 (UACC-257) was 0.959 µM (active) and the GI50 (UO-31) was 0.251 µM (active).

In the case of `Cc1c2ccccc2c(C)c2c3c(ccc12)C(=O)C=CC3=O`, the GI50 (A498) is reported as > 100 µM (inactive), the GI50 (A549) is reported as > 83.9 µM (inactive) and the GI50 (ACHN) is reported as 17.8 µM (inactive). The GI50 (COLO 205) was 15.7 µM (inactive), the GI50 (HCT-116) was 22.5 µM (inactive) and the GI50 (HOP-62) was > 44.5 µM (inactive). For the same compound, the GI50 (HT-29) was 28 µM (inactive), the GI50 (IGROV-1) was 20 µM (inactive) and the GI50 (MOLT-4) was 2.26 µM (inactive). The GI50 (OVCAR-3) was 17.8 µM (inactive), the GI50 (OVCAR-4) was 23.4 µM (inactive) and the GI50 (SK-MEL-28) was 30.7 µM (inactive). For the same compound, the GI50 (SK-MEL-2) was 45.7 µM (inactive), the GI50 (SK-OV-3) was > 60.5 µM (inactive) and the GI50 (SNB-75) was > 63.5 µM (inactive). For the same compound, the GI50 (U-251) was 52.1 µM (inactive), the GI50 (UACC-257) was 16.3 µM (inactive) and the GI50 (UO-31) was 18.2 µM (inactive).

`Cc1ccc(C)c(NC2=NC(=O)C(CC(=O)Nc3ccc(Cl)cc3Cl)S2)c1` (centres undefined) was tested, and the GI50 (A498) was 28.6 µM (inactive), the GI50 (A549) was > 100 µM (inactive) and the GI50 (ACHN) was > 100 µM (inactive). For the same compound, the GI50 (COLO 205) was 88.7 µM (inactive), the GI50 (HOP-62) was > 100 µM (inactive) and the GI50 (HT-29) was > 100 µM (inactive). For the same compound, the GI50 (IGROV-1) was > 100 µM (inactive), the GI50 (MOLT-4) was 54.8 µM (inactive) and the GI50 (OVCAR-3) was 49.9 µM (inactive). For the same compound, the GI50 (OVCAR-4) was 49.2 µM (inactive), the GI50 (SK-MEL-28) was 77.6 µM (inactive) and the GI50 (SK-MEL-2) was 29.5 µM (inactive). The GI50 (SK-OV-3) was > 100 µM (inactive), the GI50 (SNB-75) was 44.7 µM (inactive) and the GI50 (U-251) was 36.1 µM (inactive). The GI50 (UACC-257) was > 100 µM (inactive) and the GI50 (UO-31) was > 100 µM (inactive).

`C/C=C/[C@H]1O[C@@](OC)([C@@H](C)[C@H](O)[C@H](C)[C@H]2OC(=O)/C(OC)=C/C(C)=C/[C@@H](C)[C@@H](O)[C@@H](C)[C@@H](O)[C@H](C)C/C(C)=C/C=C/[C@@H]2OC)CC(OC2CC(O)C(OC(N)=O)C(C)O2)[C@@H]1C` (some centres undefined) was tested, and the GI50 (A498) was 8.99 µM (inactive), the GI50 (A549) was < 0.01 µM (active) and the GI50 (ACHN) was < 0.01 µM (active). The GI50 (COLO 205) was < 0.01 µM (active), the GI50 (HCT-116) was < 0.01 µM (active) and the GI50 (HOP-62) was < 0.01 µM (active). For the same compound, the GI50 (HT-29) was < 0.01 µM (active), the GI50 (IGROV-1) was < 0.01 µM (active) and the GI50 (MOLT-4) was < 0.01 µM (active). The GI50 (OVCAR-3) was < 0.01 µM (active), the GI50 (PC-3) was < 0.01 µM (active) and the GI50 (SK-MEL-2) was < 0.01 µM (active). The GI50 (SK-OV-3) was 7.48 µM (inactive), the GI50 (U-251) was < 0.01 µM (active) and the GI50 (UACC-257) was < 0.01 µM (active). The GI50 (UO-31) was < 0.01 µM (active).

`Cc1cc(N(CCC#N)CCC#N)ccc1/C=C1N=C(/C=C\c2ccccc2)N(c2ccc(C(=O)O)cc2)C\1=O` was tested, and the GI50 (A498) was > 100 µM (inactive), the GI50 (A549) was > 100 µM (inactive) and the GI50 (ACHN) was > 100 µM (inactive). For the same compound, the GI50 (COLO 205) was > 100 µM (inactive), the GI50 (HCT-116) was > 100 µM (inactive) and the GI50 (HOP-62) was > 100 µM (inactive). The GI50 (HT-29) was > 100 µM (inactive), the GI50 (IGROV-1) was > 100 µM (inactive) and the GI50 (MOLT-4) was > 100 µM (inactive). The GI50 (OVCAR-3) was > 100 µM (inactive), the GI50 (OVCAR-4) was > 100 µM (inactive) and the GI50 (SK-MEL-28) was > 100 µM (inactive). For the same compound, the GI50 (SK-MEL-2) was > 100 µM (inactive), the GI50 (SK-OV-3) was > 100 µM (inactive) and the GI50 (SNB-75) was > 100 µM (inactive). For the same compound, the GI50 (U-251) was > 100 µM (inactive), the GI50 (UACC-257) was > 100 µM (inactive) and the GI50 (UO-31) was > 100 µM (inactive).

`CCOC(=O)Nn1c(CC#N)nnc1Cc1ccccc1` was tested, and the GI50 (A549) was > 100 µM (inactive), the GI50 (ACHN) was > 100 µM (inactive) and the GI50 (DU-145) was > 100 µM (inactive). For the same compound, the GI50 (HCT-116) was > 100 µM (inactive), the GI50 (HOP-62) was > 100 µM (inactive) and the GI50 (HT-29) was > 100 µM (inactive). The GI50 (IGROV-1) was > 100 µM (inactive), the GI50 (MOLT-4) was > 100 µM (inactive) and the GI50 (OVCAR-3) was > 100 µM (inactive). For the same compound, the GI50 (PC-3) was > 100 µM (inactive), the GI50 (SK-MEL-28) was > 100 µM (inactive) and the GI50 (SK-MEL-2) was > 100 µM (inactive). The GI50 (SNB-75) was > 100 µM (inactive), the GI50 (U-251) was > 100 µM (inactive) and the GI50 (UACC-257) was > 100 µM (inactive). The GI50 (UO-31) was > 100 µM (inactive).

In the case of `CC(=O)Oc1c2oc3cc(O)c(O)cc3c2c(OC(C)=O)c2oc3cc(O)c(O)cc3c12` [POLYOZELLIN], the GI50 (A549) is reported as 35 µM (inactive), the GI50 (ACHN) is reported as 20.8 µM (inactive) and the GI50 (COLO 205) is reported as 15.4 µM (inactive). For the same compound, the GI50 (HCT-116) was 18.7 µM (inactive), the GI50 (HOP-62) was 16.1 µM (inactive) and the GI50 (HT-29) was 26.4 µM (inactive). For the same compound, the GI50 (IGROV-1) was 18.2 µM (inactive), the GI50 (MOLT-4) was 2.64 µM (inactive) and the GI50 (OVCAR-3) was > 10 µM (inactive). The GI50 (OVCAR-4) was 19.8 µM (inactive), the GI50 (PC-3) was 19.8 µM (inactive) and the GI50 (SK-MEL-28) was 21.1 µM (inactive). The GI50 (SK-MEL-2) was 20.5 µM (inactive), the GI50 (SK-OV-3) was 20.8 µM (inactive) and the GI50 (SNB-75) was 15.8 µM (inactive). The GI50 (U-251) was 1.56 µM (inactive), the GI50 (UACC-257) was 19.4 µM (inactive) and the GI50 (UO-31) was 21 µM (inactive).

In the case of `O=S(=O)(Cc1ccccc1)SCc1ccccc1`, the GI50 (A498) is reported as 25.3 µM (inactive), the GI50 (A549) is reported as 30.8 µM (inactive) and the GI50 (ACHN) is reported as 39.6 µM (inactive). For the same compound, the GI50 (COLO 205) was 19.5 µM (inactive), the GI50 (HCT-116) was 10.1 µM (inactive) and the GI50 (HOP-62) was 44.6 µM (inactive). For the same compound, the GI50 (HT-29) was 25.4 µM (inactive), the GI50 (IGROV-1) was 31.6 µM (inactive) and the GI50 (MOLT-4) was 3.09 µM (inactive). The GI50 (OVCAR-3) was 23.4 µM (inactive), the GI50 (OVCAR-4) was 21.2 µM (inactive) and the GI50 (SK-MEL-28) was 34.1 µM (inactive). For the same compound, the GI50 (SK-MEL-2) was 30.4 µM (inactive), the GI50 (SK-OV-3) was 48.5 µM (inactive) and the GI50 (SNB-75) was 33.9 µM (inactive). For the same compound, the GI50 (U-251) was 26 µM (inactive), the GI50 (UACC-257) was 24.3 µM (inactive) and the GI50 (UO-31) was 61.4 µM (inactive).
